Tests used:
[1] = Particle diameter by DLS and TEM; assay type: physicochemical; details: 20 µM NPs in H2O:DMSO 99:1, before interaction with NE
Excerpt: Submitted to Advanced Science
We obtained hepatocellular carcinoma (TCGA-LIHC) transcriptomic data from the Cancer Genome Atlas (TCGA) database (https://portal.gdc.cancer.gov/), quantified as transcripts per million (TPM). Tumor samples with complete clinical annotations (overall survival (OS), age, stage, etc.) were retained for further analysis.
Another HCC gene expression profile under the accession number E-TABM-36, containing 44 samples with available survival prognosis information, was obtained from the EBI Array database (https://www.ebi.ac.uk/arrayexpress/) as a validation set. […]
after being further diluted with DMSO (995, 795, 595, 395, 195, 95, 15, and 0 μL). To confirm the generation of NPs, measurements were made of the ultraviolet-visible (UV-vis) absorbance (UV-2600i, Japan) at approximately 410 nm and the fluorescence spectra (Cary 5000, Malaysia) at approximately 635 nm of solutions with different water contents. […]
temperature. […] In addition, the variation of fluorescence emission spectra of PpIX by […]
Pyrene molecules were employed as an indicator to determine the critical aggregation concentration (CAC) of nanoparticles by comparing the fluorescence of their third and first emissive peaks. […] The fluorescence spectra of pyrene (excitation, 335 nm) in different NPs dilutions were recorded. […]

[2] = Nanoparticle size stability by DLS; assay type: physicochemical; details: room temperature, 20 µM, up to 168 h, method and Figure S3 legend name H2O and medium, repeated thrice

PpIX-GFFVLK-EAIPMSIPPEVK [FTP-NPs]
diameter [1]: 24.27±4.50 nm and ≈ 25 nm
size change in PBS and FBS solutions within 168 h [2]: did not change significantly

PpIX-GGGAAK-EAIPMSIPPEVK [NFTP-NPs, nanoparticles of the non-fibrillar transformable control peptide NFTP]
diameter [1]: 26.13±3.23 nm
size change in PBS and FBS solutions within 168 h [2]: did not change significantly
